The source of these data is patent publication US12060347B2 (BRISTOL-MYERS SQUIBB COMPANY, priority 2016, dated 2024).

The structures appear in SMILES notation.

This experiment concerns the target T1, human PAR4 (Homo sapiens, UniProt Q96RI0).
T1 construct: expressed in transfected cells; host or cells: HEK293 PAR4 Clone 1.2A (BMS Arctic ID 383940)
T1 sequence (Q96RI0 18-385): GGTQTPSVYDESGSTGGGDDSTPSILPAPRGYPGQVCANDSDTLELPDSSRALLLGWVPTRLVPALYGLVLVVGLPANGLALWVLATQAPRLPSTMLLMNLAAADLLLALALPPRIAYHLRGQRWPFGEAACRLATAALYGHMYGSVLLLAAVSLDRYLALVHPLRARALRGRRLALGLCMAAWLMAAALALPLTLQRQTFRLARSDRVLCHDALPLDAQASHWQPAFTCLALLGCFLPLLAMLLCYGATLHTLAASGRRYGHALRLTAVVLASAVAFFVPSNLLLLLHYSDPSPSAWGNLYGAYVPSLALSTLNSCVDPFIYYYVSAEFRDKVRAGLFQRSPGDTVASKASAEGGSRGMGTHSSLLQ
As to the kind of experiment: PAR4 FLIPR assay: antagonism of agonist-peptide-induced calcium mobilization in PAR4-expressing HEK293 cells. Format: cell-based. The following applies: H-Ala-Phe(4-F)-[…]NH2-induced intracellular calcium mobilization, 11-point curves. In general terms: Calcium flux is commonly read through the fluorescence of an indicator in the cells.

Take `COc1ccc(NC(=O)OC[C@H](C)Oc2cc3sc(-c4cc(C)cc5nc(OC)cnc45)nc3c(Cl)c2F)cn1` (single isomer, unassigned) [Example 382]: the IC50 came out at 1.3 nM.
The same measure for `COCc1cnc2c(-c3nc4c(CO)c(C)c(OC)cc4s3)cc(C)cc2n1` [Example 300]: 0.9 nM; for `COc1cnc2c(-c3nc4cc(F)c(OC[C@@H](C)OC(=O)Nc5cnc(CO)nc5)nc4s3)cc(Cl)cc2c1` [Example 794, (R)-1-((2-(6-chloro-3-methoxyquinolin-8-yl)-6-fluorothiazolo[5,4-b]pyridin-5-yl)oxy)propan-2-yl (2-(hydroxymethyl)pyrimidin-5-yl)carbamate]: 10 nM; for `COc1cnc2c(-c3nc4cc(F)c(O[C@@H](C)[C@@H](C)OC(=O)Nc5cnnc(C)c5)cc4s3)cc(C)cc2n1` [Example 418, (2R,3S)-3-((5-fluoro-2-(2-methoxy-7-methylquinoxalin-5-yl)benzo[d]thiazol-6-yl)oxy)butan-2-yl (6-methylpyridazin-4-yl)carbamate]: 1.3 nM.
As to `COc1cnc2c(-c3nc4c(Cl)c(F)c(OCCOC(=O)NCc5cnn(C)c5)cc4s3)cc(C)cc2n1` [Example 399, 2-((4-chloro-5-fluoro-2-(2-methoxy-7-methylquinoxalin-5-yl)benzo[d]thiazol-6-yl)oxy)ethyl ((1-methyl-1H-pyrazol-4-yl)methyl)carbamate], the concentration for half-maximal inhibition (IC50) was 3.9 nM.
On to `COCc1cnc2c(-c3nc4c(C)cc(OCCNS(=O)(=O)c5ccc(F)cc5)cc4s3)cccc2n1` [Example 213, 4-fluoro-N-(2-((2-(2-(methoxymethyl)quinoxalin-5-yl)-4-methylbenzo[d]thiazol-6-yl)oxy)ethyl) benzenesulfonamide], for which the IC50 was 5.8 nM.
The same measure for `COc1cnc2c(-c3nc4cc(F)c(O[C@@H](C)[C@@H](C)OC(=O)Nc5ccnc(OC[C@@H](C)O)c5)cc4s3)cc(C)cc2n1` [Example 550, (2R,3S)-3-((5-fluoro-2-(2-methoxy-7-methylquinoxalin-5-yl)benzo[d]thiazol-6-yl)oxy)butan-2-yl (2-((R)-2-hydroxypropoxy)pyridin-4-yl)carbamate]: 0.4 nM; for `COc1cnc2c(-c3nc4cc(F)c(OC[C@@H](C)OC(=O)Nc5ccc(CO)nc5)cc4s3)cc(C)cc2n1` [Example 546, (R)-1-((5-fluoro-2-(2-methoxy-7-methylquinoxalin-5-yl)benzo[d]thiazol-6-yl)oxy)propan-2-yl (6-(hydroxymethyl)pyridin-3-yl)carbamate]: 14 nM.
To `Cc1cc(-c2nc3c(C)cccc3s2)c2ncc(OC(F)F)nc2c1` [Example 52, 2-(2-(difluoromethoxy)-7-methylquinoxalin-5-yl)-4-methylbenzo[d]thiazole] belongs 4.7 nM; to `COc1cnc2c(-c3nc4cc(F)c(OC[C@@H](C)OC(=O)Nc5ccc(C(=O)NCC(C)(C)CO)nc5)cc4s3)cc(C)cc2n1` [Example 472, (R)-1-((5-fluoro-2-(2-methoxy-7-methylquinoxalin-5-yl)benzo[d]thiazol-6-yl)oxy)propan-2-yl (6-((3-hydroxy-2,2-dimethylpropyl)carbamoyl)pyridin-3-yl)carbamate], 4.6 nM; to `COc1cccc2nc(-c3cc(C)cc4nc(OC(F)F)cnc34)sc12` [Example 58, 2-(2-(difluoromethoxy)-7-methylquinoxalin-5-yl)-7-methoxybenzo[d]thiazole], 3 nM.
The same measure for `COc1cnc2c(-c3nc4cc(F)c(OC[C@@H](C)OC(=O)Nc5cccnc5)nc4s3)cc(C)cc2n1` [Example 684, (R)-1-((6-fluoro-2-(2-methoxy-7-methylquinoxalin-5-yl)thiazolo[5,4-b]pyridin-5-yl)oxy) propan-2-yl pyridin-3-ylcarbamate]: 0.7 nM.
`COc1cnc2c(-c3nc4cc(F)c(OC[C@@H](C)OC(=O)Nc5ccnc(C(N)=O)c5)cc4s3)cc(C)cc2n1` [Example 444, (R)-1-((5-fluoro-2-(2-methoxy-7-methylquinoxalin-5-yl)benzo[d]thiazol-6-yl)oxy)propan-2-yl (2-carbamoylpyridin-4-yl)carbamate]: the IC50 was 0.8 nM.
Regarding `Cc1cc(-c2nc3c(C)cc(OCCNS(=O)(=O)c4ccc(F)cc4)cc3s2)c2ncc(OC(F)F)nc2c1` [Example 81, N-(2-(2-(2-(difluoromethoxy)-7-methylquinoxalin-5-yl)-4-methylbenzo[d]thiazol-6-yloxy)ethyl)-4-fluorobenzenesulfonamide], the IC50 is 1.5 nM.
To `Cc1cc(-c2nc3ccccc3[nH]2)c2ncc(OC(F)F)nc2c1` [Example 47, 5-(1H-benzo[d]imidazol-2-yl)-2-(difluoromethoxy)-7-methylquinoxaline] belongs 34 nM.
To `COc1cnc2c(-c3nc4cc(F)c(OCCOC(=O)Nc5ccc(F)nc5)cc4s3)cc(C)cc2n1` [Example 340, 2-((5-fluoro-2-(2-methoxy-7-methylquinoxalin-5-yl)benzo[d]thiazol-6-yl)oxy)ethyl (6-fluoropyridin-3-yl)carbamate] belongs 1.5 nM; to `COc1cnc2c(-c3nc4c(Cl)c(F)c(OCCOC(=O)NCc5ccn(C)n5)cc4s3)cc(C)cc2n1` [Example 398, 2-((4-chloro-5-fluoro-2-(2-methoxy-7-methylquinoxalin-5-yl)benzo[d]thiazol-6-yl)oxy)ethyl ((1-methyl-1H-pyrazol-3-yl)methyl)carbamate], 8.6 nM.
The same measure for `COc1cnc2c(-c3nc4cc(F)c(O[C@@H](C)[C@@H](C)OC(=O)Nc5cncc(O)c5)cc4s3)cc(C)cc2n1` [Example 533, (2R,3S)-3-((5-fluoro-2-(2-methoxy-7-methylquinoxalin-5-yl)benzo[d]thiazol-6-yl)oxy)butan-2-yl (5-hydroxypyridin-3-yl)carbamate]: 0.7 nM; for `COc1cnc2c(-c3nc4c(s3)C(OC)CCC4)cc(C)cc2n1` (centres unmarked) [Example 139, 7-methoxy-2-(2-methoxy-7-methylquinoxalin-5-yl)-4,5,6,7-tetrahydrobenzo[d]thiazole]: 3.9 nM.
For `COc1ccc2oc(-c3cc(C)cc4nc(OC(F)F)cnc34)cc2c1OC` [Example 6, 2-(difluoromethoxy)-5-(4,5-dimethoxybenzofuran-2-yl)-7-methylquinoxaline], the IC50 came to 130 nM.
On to `COCc1cnc2c(-c3nc4c(C)c(F)c(OCC(=O)OC)cc4s3)cc(C)cc2n1` [Example 286, methyl 2-((5-fluoro-2-(2-(methoxymethyl)-7-methylquinoxalin-5-yl)-4-methylbenzo[d]thiazol-6-yl)oxy)acetate], for which the IC50 stood at 0.5 nM.
To `COc1cnc2c(-c3nc4cc(F)c(O[C@@H](C)[C@@H](C)OC(=O)Nc5cnc(NCC(C)(C)O)nc5)cc4s3)cc(C)cc2n1` [Example 606, (2R,3S)-3-((5-fluoro-2-(2-methoxy-7-methylquinoxalin-5-yl)benzo[d]thiazol-6-yl)oxy)butan-2-yl (2-((2-hydroxy-2-methylpropyl)amino)pyrimidin-5-yl)carbamate] belongs 0.4 nM; to `COc1cnc2c(-c3nc4cc(F)c(O[C@@H](C)[C@@H](C)OC(=O)Nc5ccc(CO)nc5)cc4s3)cc(C)cc2n1` [Example 499, (2R,3S)-3-((5-fluoro-2-(2-methoxy-7-methylquinoxalin-5-yl)benzo[d]thiazol-6-yl)oxy)butan-2-yl (6-(hydroxymethyl)pyridin-3-yl)carbamate], 4.4 nM.

By IC50 is commonly meant the concentration that inhibits the measured activity by half.
